The results in this text go back to patent US20110190249A1, “THERAPEUTIC METHODS AND USES OF SAPOGENINS AND THEIR DERIVATIVES” (PHYTOPHARM PLC, priority 2002, published 2011).

The test system of experiment [1] is rat mesencephalic dopaminergic neurones. As to the kind of experiment: Treatment of dopaminergic neurones after MPP+ exposure (survival, neurites). The format is cell-based. The conditions noted are these: MPP+ 2 μM. From the text: Smilagenin and sarsasapogenin also reverse the neurodegeneration caused by exposure to the neurotoxin 1-methyl-4-phenylpyridinium (MPP^+) in rat mesencephalic dopaminergic neurones; a model of Parkinson's disease in vitro.
Glial cell line-derived neurotrophic factor (GDNF) and brain-derived neurotrophic factor (BDNF), molecules that are involved in neuronal growth, and 17β-oestradiol were used as positive controls. Treatment with smilagenin and sarsasapogenin produced a significant increase in the neuronal survival compared to neurones exposed to MPP^+ alone (Table 8).
Exposure to MPP^+ caused not only a significant decrease in dopaminergic number but also in the percentage of neurites.

The next experiment has as its system dopamine (D) 2 receptor. As to the kind of experiment: Dopamine D2 receptor density in aged rats. The format is in vivo, rat. The conditions noted are these: aged rats treated 3 months; aged untreated 153.8±40.5, young 200.6±50.9. Here is the method:
(§1) Aged Sprague-Dawley rats aged were divided into different groups, one control and groups treated for 2-3 months with either sarsasapogenin, episarsasapogenin cathylate or smilagenin (18 mg kg^−1 day^−1, n=10). A control group (n=14) of untreated young rats was also included in the study. The daily dose of drug was mixed in a minimum amount of food and was administered every morning separately to each rat.
(§2) By contrast, smilagenin and sarsasapogenin treatment in aged rats for 3 months restored the D1 and D2 receptor density (smilagenin 177±10.9; 217±45.7 fmol/mg protein; sarsasapogenin 172.0±44.0; 206.4±60.5 respectively).

Experiment [2] deals with rat primary cortical neurones. Description: Reversal of glutamate-induced neurodegeneration (LDH), treatment after glutamate exposure. The format is cell-based. The conditions noted are these: LDH after 24 h, control = 100. Here is the method:
(§3) Neuronal cell survival was evaluated by measuring lactate dehydrogenase (LDH) activity released in the media 24 h after test compound treatment or glutamate+test compound exposure, using the CytoTox 96 non-radioactive kit and quantitated by measuring wavelength absorbance at 450 nm.
As above mentioned, exposure of rat primary cortical cultures to glutamate (100 μM; 10 min) caused an increase in lactate dehydrogenase (LDH) activity measured after 24 h, indicating a significant neurodegeneration.

Another experiment relates to caspase-3. As to the kind of experiment: Glutamate induced caspase 3 activity in cortical neurones. The conditions noted are these: 300 nM for 6 h after glutamate 100 microM 10 min; glutamate alone 131. Format: cell-based, rat. As for the experimental part:
The objective of this study was to examine the anti-apoptotic effect of smilagenin on the caspase-3 activity, a marker of apoptosis, in rat primary cortical cultures exposed to glutamate
Rat cortical neurones were cultured for 6 days. At day 6, glutamate (100 microM, 10 min) was added. Then the cultures were washed and medium was replaced with fresh medium containing smilagenin or vehicle control (DMSO, 0.25%) for 6 h. After 6 h treatment, apoptosis was evaluated by measuring caspase 3, activity. Caspase 3 activity was detected by the cleavage of p-nitroaniline from a colorimetric caspase-3 substrate, acetyl-Asp-Glu-Val-Asp p-nitroanilide. […] has a high absorbance at 405 nm. Relative caspase-3 activity was measured as optical density. In addition the relative activity of caspase-3 was standardised to protein concentration of the sample, which was also measured as an optical density (Du et al, J Neurochem., 69, 1382-1388, 1997; Sawada et al, Faseb J., 14, 1202-1214, 2000).

Experiment [3] has as its system rat primary spinal motor neurones. Description: Glutamate-induced neurodegeneration in spinal motor neurones (LDH). The format is cell-based. The note with it: control 100 ± 1. As for the experimental part:
The objective of this study was to examine the effects of sarsasapogenin and smilagenin on the survival of rat primary spinal motor neurones exposed to glutamate, which is known to induce neurodegeneration in this model of motor neurodegeneration.
Rat motor neurones were prepared according to the method described by (Martinou et al, Neuron, 8, 737-744, 1992). On day 10, medium was removed and the cultures were exposed to glutamate (4 microM) for 10 min at 37° C. in defined medium. After the glutamate exposure, cultures were washed with Dulbecco modified Eagle medium at 37° C. then placed in fresh culture medium containing test compounds. After 48 h, the extent of spinal motor neurone degeneration was determined by measuring the amount of lactate dehydrogenase (LDH) released into the culture medium as above.

The test system of experiment [4] is rat primary cortical neurones. Description: Prevention of glutamate-induced neurodegeneration (LDH release), pre-treatment. The conditions noted are these: 30 nM, given 24 h before glutamate; LDH 24 h after glutamate; control = 100. The format is cell-based. Here is the method:
The objective of this study was to examine the effects of sarsasapogenin, episarsasapogenin cathylate, episarsasapogenin, epismilagenin and smilagenin on the survival of rat primary cortical neurones exposed to glutamate, which is known to induce neuro degeneration.
Rat cortical neurones were cultured for 10 days; at day 10 the medium was changed to a serum-free defined medium. On day 12, 24 hours before glutamate exposure, cultures were washed and medium was replaced with fresh medium containing positive control (β-oestradiol), test compounds (sarsasapogenin, episarsasapogenin cathylate, episarsasapogenin, epismilagenin and smilagenin) or vehicle control (DMSO, 0.25%) or diosgenin as negative control.
On day 13, cultures were exposed to glutamate. After the incubation period, the cultures were washed with and placed in fresh medium, supplemented with relevant compounds or vehicle to evaluate their protective effects, 24 h after glutamate exposure.
as §3

For experiment [5], the system named is muscarinic acetylcholine receptor. As to the kind of experiment: Brain muscarinic acetylcholine receptor density in aged rats (dual-site competitive ligand binding). Format: in vivo, rat. The conditions noted are these: 18 mg kg−1 day−1 oral, 2-3 months. As for the experimental part: as §1
Muscarinic acetylcholine receptor density in the brain was measured. Tissue was prepared as follows: brains were removed quickly after decapitation, frozen in dry ice, and transferred to a freezer. The brains were homogenised and the pellet was finally suspended in buffer.
The dual-site competitive ligand binding assay was used to measure muscarinic acetylcholine receptor density.

A further experiment has as its system dopamine (D) 1 receptor. As to the kind of experiment: Dopamine D1 receptor density in aged rats. Format: in vivo, rat. The note with it: aged rats treated 3 months; aged untreated 129.2±36.8, young 157.5±33.2. As for the experimental part: as §1, §2
The subject of a further experiment is aged Sprague-Dawley rats. As to the kind of experiment: Y-maze learning and memory test in aged rats. The format is in vivo, rat. The note with it: 18 mg kg−1 day−1 oral in food, 3 months. As for the experimental part:
as §1
A Y-maze apparatus was used for the learning and memory test. On the floor of each arm of the Y-maze is an array of copper rods to which electric current is applied whenever needed, with adjustable voltage. Each arm is 45 cm long and has a 15 W lamp at the end, which is turned on when needed. After 3 months drug administration, each rat was trained for 7 consecutive days, as follows. For each training session, the rat was put into one arm of the Y-maze, after two minutes rest, an electrical current was applied to the copper rods and the lamp of the clockwise arm was illuminated to indicate the non-stimulation area. If the rat went into that arm, one correct response was recorded, otherwise, one wrong response was recorded: This stimulation-response test was repeated 20 times each day, with a pause of 5 sec between each two consecutive tests. The number of correct responses following the twenty tests on the seventh day was used to express learning ability, (the higher the number the better the learning ability). The rats were then left resting for 30 days and the procedure was repeated once more. The number of correct responses of the 20 tests after the 30 day rest period was used to represent the memory ability

As to `C[C@@H]1CC[C@@]2(OC1)O[C@H]1C[C@H]3[C@@H]4CC[C@@H]5C[C@@H](O)CC[C@]5(C)[C@H]4CC[C@]3(C)[C@H]1[C@@H]2C` [smilagenin], the “Percentage of neurites in dopaminergic neurones after MPP+ exposure, Mean ± s.e.m (%)” value in experiment [1] (0.03 nM, control 41 ± 4, MPP+ alone 27 ± 5) is on record as 41 ± 4%. The “Dopaminergic neurones after MPP+ exposure (survival), Mean ± s.e.m (%)” value in experiment [1] (treatment 0.03 nM, MPP+ alone 76 ± 4) amounted to 111 ± 6%. The same compound yielded a D2 receptor density in the experiment on dopamine (D) 2 receptor of 217±45.7 fmol/mg protein. Moreover, the “Cortical neurones previously exposed to glutamate, Mean ± s.e.m (%)” value in experiment [2] (3 nM after glutamate 100 μM 10 min) is recorded as 109 ± 6%; in experiment [2] (30 nM after glutamate 100 μM 10 min), 104 ± 1%. Also, the “Caspase activity (% of control)” value with caspase-3 was 105 % of control. Besides, the “Glutamate-induced neurodegeneration in spinal motor neurones, Mean ± s.e.m (%)” value in [3] (0.03 nM for 48 h after glutamate 4 microM 10 min) turned out to be 128 ± 4%; in experiment [3] (3 nM for 48 h after glutamate 4 microM 10 min) it was 154 ± 1%; in experiment [3] (300 nM for 48 h after glutamate 4 microM 10 min), 144 ± 4%. Besides, in [4], the “Prevention of glutamate-induced neurodegeneration, Mean ± s.e.m (%)” value is listed as 91 ± 4%. In addition, in experiment [5], the “Muscarinic acetylcholine receptor density in brain” value is “significantly restored”. For the same compound, the D1 receptor density in the experiment with dopamine (D) 1 receptor amounted to 177±10.9 fmol/mg protein. Further, the “Learning and memory ability (Y-maze)” value in the experiment on aged Sprague-Dawley rats was “restored the learning and memory ability”.
